From patent publication US7479478B2, “Human parathyroid hormone modifications, preparation and use” (The General Hospital Corporation, priority 1998, dated 2009)
No end group written: not given here.

Legend:
human PTH-1 receptors [1] = target: T1, human PTH-1 receptors (Homo sapiens, UniProt Q03431); assay: Radioligand competition binding with 125I-[Nle8,21,Tyr34]rat PTH-(1-34) in HKRK B7 cells; conditions: read-out: apparent IC50 for binding
T1 construct: expressed in transfected cells
T1 sequence (Q03431 27-593): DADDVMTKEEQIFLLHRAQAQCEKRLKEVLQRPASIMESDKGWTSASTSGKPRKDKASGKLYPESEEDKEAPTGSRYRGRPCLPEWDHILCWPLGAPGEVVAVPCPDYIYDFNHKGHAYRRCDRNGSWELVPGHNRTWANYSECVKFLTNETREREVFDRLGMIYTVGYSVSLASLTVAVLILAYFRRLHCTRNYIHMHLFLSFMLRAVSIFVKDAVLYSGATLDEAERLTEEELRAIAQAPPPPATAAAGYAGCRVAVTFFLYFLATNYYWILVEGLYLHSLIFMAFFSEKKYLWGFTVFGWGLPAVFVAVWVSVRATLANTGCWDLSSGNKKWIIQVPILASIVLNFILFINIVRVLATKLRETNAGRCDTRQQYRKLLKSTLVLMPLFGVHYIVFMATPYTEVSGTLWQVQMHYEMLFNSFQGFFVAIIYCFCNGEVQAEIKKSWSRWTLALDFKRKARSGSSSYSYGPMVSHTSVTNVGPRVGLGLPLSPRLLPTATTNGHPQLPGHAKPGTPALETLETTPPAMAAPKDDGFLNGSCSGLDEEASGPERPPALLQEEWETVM
Protocol: HKRK B7 or EW5 cells (32), subclones of LLC-PKI renal epithelial cells that stably express human or rat PTH-1 receptors (950,000 and 320,000 receptors/cell, respectively), were maintained under 5% CO2 in air in Dulbecco's modified essential medium containing 7% fetal bovine serum (FBS) and 1% penicillin/streptomycin (GIBCO-BRL, Grand Island, N.Y.). HEK-293 and COS-7 cells were cultured similarly, except that 10% FBS was used in the medium. Cells were seeded into 24-well plates two days before assay at a density of 2-2.5×10^5 cells/well (HKRK B7 or EW 5 cells) or 6×10^5 cells/well (in 6-well plates) (HEK-293 cells). In experiments involving HEK-293 cells, DNA transfections were performed 24 hr after plating and inositol radiolabel was added 24 hr thereafter (see below). COS-7 cell transfections were performed as previously described (Gardella, T. J., et al., Endocrinology 132(5):2024-2030 (1993)) Radioligand competition binding assays were performed at 2-8° C. for 6 hr using ^125I-[Nle^8,21,[…]]rat PTH-(1-34) (100,000 cpm/well) in the presence or absence of non-radioactive hPTH-(1-34) analogs. Cell layers were washed three times before solubilization for determination of cell-associated radioactivity.

human PTH-1 receptors [2] = target: T1, human PTH-1 receptors; assay: PLC activation (total inositol polyphosphates) in transiently transfected HEK-293 cells; type: cell-based; conditions: 1000 nM peptide, mean ± SEM
Protocol: HKRK B7 or EW5 cells (32), subclones of LLC-PKI renal epithelial cells that stably express human or rat PTH-1 receptors (950,000 and 320,000 receptors/cell, respectively), were maintained under 5% CO2 in air in Dulbecco's modified essential medium containing 7% fetal bovine serum (FBS) and 1% penicillin/streptomycin (GIBCO-BRL, Grand Island, N.Y.). HEK-293 and COS-7 cells were cultured similarly, except that 10% FBS was used in the medium. Cells were seeded into 24-well plates two days before assay at a density of 2-2.5×10^5 cells/well (HKRK B7 or EW 5 cells) or 6×10^5 cells/well (in 6-well plates) (HEK-293 cells). In experiments involving HEK-293 cells, DNA transfections were performed 24 hr after plating and inositol radiolabel was added 24 hr thereafter (see below). COS-7 cell transfections were performed as previously described (Gardella, T. J., et al., Endocrinology 132(5):2024-2030 (1993))
PLC was activated by PTH agonists in the presence of 30 mM LiCl at 37° C. for 30 min after 16 hr of labeling with [^3H]myo-inositol (3 uCi/ml) in serum-free medium containing 0.1% bovine serum albumin. […]
Total inositol polyphosphate produced in response to 1000 nM of the peptides shown were measured in HEK-293 cells that transiently expressed human PTH-1 receptors. Results are expressed as means±SEMs of the % of basal activity for triplicate determinations.

IC50 (human PTH-1 receptors [1]): 1 µM
PLC Activity (% Basal) (human PTH-1 receptors [2]): 305 ± 20 % Basal
Substance: SVSEIQLMHNLGKHLNSMERVEWLRKKL-NH2 [hPTH-(1-28)]
